Patent publication US20260250318A1, “COMPOSITIONS AND METHODS FOR CROSSING THE BLOOD BRAIN BARRIER” (VOYAGER THERAPEUTICS, INC., priority 2022, published 2026)

Tested on: brains, heart, liver, muscle, and DRG of the NHPs
Assay: Maturation of TTM-001 and TTM-002 capsids, NGS enrichment in NHP tissues
Assay type: in vivo
Excerpt: This Example describes maturation of the AAV9 capsid variants, TTM-001 (SEQ ID NO: 981 (amino acid) and 983 (DNA), comprising SEQ ID NO: 941 (encoded by SEQ ID NO: 942)) and TTM-002 (SEQ ID NO: 982 (amino acid) and 984 (DNA), comprising SEQ ID NO: […] (encoded by SEQ ID NO: 944)) in NHPs to further enhance their transduction and biodistribution in the central nervous system as well as other tissues, and evolve the AAV capsid variants to provide further cross-species compatibility. Two approaches were used to mature the TTM-001 and TTM-002 capsid sequences in order to randomize and mutate within and around the peptide insert comprised within loop IV of the capsid variant. […] In the first maturation approach, sets of three contiguous amino acids were randomized across the mutagenesis region in the TTM-001 and TTM-002 sequences, which spanned from position 450 to position 466, numbered according to SEQ ID NO: 981 and 982. In the second maturation approach, mutagenic primers were used to introduce point mutations at a low frequency, scattered across the mutagenesis region in the TTM-001 and TTM-002 sequences ranging from position 449 to position 466, numbered according to SEQ ID NO: 981 and 982. AAV capsid variants arising from each maturation approach for TTM-001 and TTM-002 were pooled together, for subsequent testing and characterization in NHPs.
The library of pooled matured AAV capsid variants generated using the first maturation approach and the second maturation approach for the TTM-001 and TTM-002 AAV capsid variants were injected into two NHPs. […] Following RNA recovery and RT-PCR amplification, a systematic NGS enrichment analysis was performed to calculate the fold enrichment ratio relative to an AAV9 control, and the peptides comprised within the variants were identified.
Following the RNA recovery and NGS analysis from the second maturation approach, approximately 680,000 capsid variants were identified. The 680,000 matured capsid variants were then filtered based on samples with a raw virus count greater than 10 and a coefficient of variance (CV) of less than 1, which was calculated for each peptide across the brain samples taken from the two NHPs. […] Using this filtering criteria, this led to approximately 64,000 matured capsid variants.

[1] = NHP DRG, NGS, relative to AAV9 control
[2] = NHP brain, NGS, relative to AAV9 control
[3] = NHP heart, NGS, relative to AAV9 control
[4] = NHP liver DNA, NGS, relative to AAV9 control
[5] = NHP liver RNA, NGS, TTM-001 and TTM-002 matured AAV capsid variants, relative to AAV9 control
[6] = NHP muscle, NGS, relative to AAV9 control

Row | Sequence | Fold Enrichment relative to AAV9, DRG (NHP) [1] | Fold Enrichment relative to AAV9, Brain (NHP) [2] | Fold Enrichment relative to AAV9, Heart (NHP) [3] | Fold Enrichment relative to AAV9, Liver DNA (NHP) [4] | Fold Enrichment relative to AAV9, Liver RNA (NHP) [5] | Fold Enrichment relative to AAV9, Muscle (NHP) [6] | Fold Enrichment relative to AAV9, DRG (NHP) (NGS fold-enrichment, DRG, NHP, relative to AAV9) | Fold Enrichment relative to AAV9, Brain (NHP) (NGS fold-enrichment, brain, NHP, relative to AAV9) | Fold Enrichment relative to AAV9, Heart (NHP) (NGS fold-enrichment, heart, NHP, relative to AAV9) | Fold Enrichment relative to AAV9, Liver DNA (NHP) (NGS fold-enrichment, liver DNA, NHP, relative to AAV9) | Fold Enrichment relative to AAV9, Liver RNA (NHP) (NGS fold-enrichment, liver RNA, NHP, relative to AAV9) | Fold Enrichment relative to AAV9, Muscle (NHP) (NGS fold-enrichment, muscle, NHP, relative to AAV9)
1 | KTINGSGSPHSVRYNQQT | 0.000 fold | 0.000 fold | 0.000 fold | 1.413 fold | 16.390 fold | 0.000 fold |  |  |  |  |  | 
2 | KTINGSGSPHSKLFWQQT | 0.000 fold | 0.000 fold | 0.000 fold | 4.178 fold | 37.022 fold | 0.000 fold |  |  |  |  |  | 
3 | KTRKRSGSPHSKAQNQQT | 0.000 fold | 0.000 fold | 0.000 fold | 2.075 fold | 16.603 fold | 0.000 fold |  |  |  |  |  | 
4 | KTINGSLSPHFWAQNQQT | 0.000 fold | 0.000 fold | 0.000 fold | 2.041 fold | 43.190 fold | 0.000 fold |  |  |  |  |  | 
5 | KTINGSGSPHSKPKRQQT | 0.000 fold | 0.000 fold | 0.000 fold | 2.832 fold | 52.881 fold | 0.000 fold |  |  |  |  |  | 
6 | KTINFTRSPHSKAQNQQT | 0.000 fold | 0.000 fold | 0.000 fold | 3.751 fold | 14.908 fold | 0.000 fold |  |  |  |  |  | 
7 | KRYNGSGSPHSKAQNQQT | 0.000 fold | 0.000 fold | 0.000 fold | 0.806 fold | 15.160 fold | 0.000 fold |  |  |  |  |  | 
8 | KTINGSGSPHSLYWNQQT | 0.000 fold | 0.000 fold | 0.000 fold | 0.000 fold | 53.262 fold | 0.000 fold |  |  |  |  |  | 
9 | KTINGSGSPHCPAQNQQT | 0.000 fold | 0.000 fold | 0.000 fold | 1.409 fold | 13.359 fold | 0.000 fold |  |  |  |  |  | 
10 | KTINGSGSPHSKAQFILT | 0.000 fold | 0.000 fold | 0.000 fold | 4.208 fold | 16.650 fold | 0.000 fold |  |  |  |  |  | 
11 | KTINGSGSPHSKWRLQQT | 0.000 fold | 0.000 fold | 0.000 fold | 2.037 fold | 68.083 fold | 0.000 fold |  |  |  |  |  | 
12 | KTINGSGSPHSKPFRQQT | 0.000 fold | 0.000 fold | 0.000 fold | 8.700 fold | 29.842 fold | 0.000 fold |  |  |  |  |  | 
13 | KTINGSGSPHSYLVNQQT | 0.000 fold | 0.000 fold | 0.000 fold | 1.267 fold | 17.766 fold | 0.000 fold |  |  |  |  |  | 
14 | KTINGSGSPHSKAQFCLT |  |  |  |  |  |  | 0.000 fold | 0.000 fold | 0.000 fold | 3.371 fold | 10.065 fold | 0.000 fold
15 | KTINGSGSPHSKRRAQQT | 0.000 fold | 0.000 fold | 0.000 fold | 5.906 fold | 26.523 fold | 0.000 fold |  |  |  |  |  | 
16 | KFFHGSGSPHSKAQNQQT | 0.000 fold | 0.000 fold | 0.000 fold | 0.897 fold | 15.412 fold | 0.000 fold |  |  |  |  |  | 
17 | KTINGSGSPHSSCTNQQT | 0.000 fold | 0.000 fold | 0.000 fold | 3.363 fold | 11.382 fold | 0.000 fold |  |  |  |  |  | 
18 | KTINGSGSPHSRCPNQQT | 0.000 fold | 0.000 fold | 0.000 fold | 4.890 fold | 39.529 fold | 0.000 fold |  |  |  |  |  | 
19 | KTINGSGSPHRWTQNQQT | 0.000 fold | 0.000 fold | 0.000 fold | 0.844 fold | 12.490 fold | 0.000 fold |  |  |  |  |  | 
20 | KTINGSGSPHSKARQRQT | 0.000 fold | 0.000 fold | 0.000 fold | 2.205 fold | 56.775 fold | 0.000 fold |  |  |  |  |  | 
